Laboratory results as given in patent publication US4847303A, “Tert-butylphenyl compounds useful as anti-inflammatory agents” (The Procter & Gamble Company, priority 1987, dated 1989).

Tested on: Carrageenan Rat Paw Edema
Assay: Carrageenan Rat Paw Edema Test
Assay type: in vivo, rat (male Sprague-Dawley)
Conditions: 100 mg/kg P.O.; carrageenan 1 h after dosing, paw volume 4 h after carrageenan; all values statistically significant from control at P ≤ 0.05
Procedure: Carrageenan Rat Paw Edema Test
Male Sprague-Dawley rats (Charles River Laboratories) are weighed and food fasted overnight. The animals are then divided into four to six groups of six animals each according to body weights (average about 145 g) so that each group has about the same average body weight (within 10 g).
The following morning animals are dosed with the test compound and then placed in individual cages. For oral dosing, the drug is suspended in 0.5% methyl cellulose with 2% Tween 80, and delivered via stomach tube in a 5 ml volume.
Paw volumes (0 time) are determined on both hind paws with a mercury displacement device equipped with a transducer and digitizer. One hour after dosing the test compound, the animals are placed in a plastic restrainer and 50 ul of a 1% (w/w) carrageenan solution in 0.9% saline is injected into the ventral surface of the left rear paw. Four hours after the carrageenan injection, the paw volumes are again determined.
The results are expressed as percent inhibition of the mean paw volume of the test group relative to the control group. Statistical differences are determined by one way analysis of variance.

Compound | Percent Inhibition at 100 mg/kg dosed P.O (mean paw volume of the test group relative to the control group) [%]
C#CCCCC(=O)c1cc(C)c(O)c(C(C)(C)C)c1 [Example 1, 2-methyl-4-(5'-hexynoyl)-6-t-butylphenol] | 75.4
C#CCCCC(=O)c1cc(C(C)(C)C)c(O)c(C(C)(C)CO)c1 [Example 2, 2-(2-hydroxy-1,1-dimethyl-ethyl)-4-(5'-hexynoyl)-6-t-butylphenol] | 48.4
C#CCCCC(=O)c1cc(CC=C)c(O)c(C(C)(C)C)c1 [Example 3, 1-Allyl-4-(5'-hexynoyl)-6-t-butylphenol] | 65.8
C#CCCCC(=O)c1cc(CCC)c(O)c(C(C)(C)C)c1 [Example 4, 2-n-propyl-4-(5'-hexynoyl)-6-t-butylphenol] | 53.2
C#CCCCC(=O)c1cc(C(C)C=C)c(O)c(C(C)(C)C)c1 (stereo not drawn) [Example 5, 2-s-(3-butenyl)-4-(5'-hexynoyl)-6-t-butylphenol] | 90.8
C#CCCCC(=O)c1cc(C(C)CC)c(O)c(C(C)(C)C)c1 (stereo not drawn) [Example 6, 2-s-butyl-4-(5'-hexynoyl)-6-t-butylphenol] | 51.5
